# Results reported in patent US5437980A, “Phenanthridium dye staining of nucleic acids in living cells” (Molecular Probes, Inc., priority 1993, dated 1995).
# Entries after “also recorded” stand apart in the source; their conditions may differ.
# Assays:
# Bacillus cereus = test: Relative rate and extent of dye uptake into living Bacillus cereus (Example 2, FIG. 1); assay type: cell-based; conditions: 2 μM dye, 23° C.
# Method: FIG. 1. Relative Uptake of Dyes into Living Cells. Uptake of ethidium, butidium, hexidium and octidium by Bacillus cereus as described in Example 2.
# Bacillus cereus is grown in nutrient broth to log phase, washed by centrifugation, and resuspended in water to a density of 5×10^6 cfu/mL (as determined in Example 1). One centimeter pathlength acrylic cuvettes containing 3 mL of cell suspension are placed in a fluorescence spectrophotometer equipped with a temperature regulated cuvette holder and magnetic stirrer. The suspensions are brought to 23° C. prior to dye addition. To a cuvette of 3 mL bacteria suspension is added 3 μL of 2 mM dye stock solutions in DMSO to give a final dye concentration of 2 μM to produce the maximum attainable fluorescence/cell at the 600 nm emission wavelength (determined as in Example 1). The peak fluorescence excitation and emission wavelengths are determined by scanning the spectrum of the dye in suspensions of Bacillus cereus incubated for 30 min with the dye. Fluorescence intensity of the suspensions is measured using 488 nm excitation and 600 nm emission wavelengths. Sampling of fluorescence is carried out at 5 or 10 Hz until the fluorescence signal appears to stabilize.
# mushroom spores = test: Staining of mushroom spores by fluorescence microscopy (Example 4); assay type: cell-based, agaric; conditions: 10-20 μM dye, 30 min, room temperature
# Method: Spores are rinsed from the gills on the underside of the cap of an agaric using a stream of distilled water. The spores are concentrated by centrifugation for 30 sec at 10,000 rpm in a microcentrifuge then a minimal volume of a 10-20 μM solution of the 5-DAPP/LIVE dye in distilled water is added. The suspension is incubated with the dye for 30 min at room temperature then a 15 μL aliquot of the suspension is mounted on between a coverglass and the slide for viewing in the presence of the dye. The cellular fluorescence is observed on a Zeiss Axioplan fluorescence microscope using fluorescein (long:pass emission) or rhodamine filter sets.
# Saccharomyces = test: Staining of yeast (Example 5); assay type: cell-based; conditions: 10 μM dye, 30 min, 37° C.
# Method: Yeast cells are washed by centrifugation and then resuspended in a solution of 2% glucose and 10 mM Na-HEPES, pH 7.4 to a cell density of between 5×10^5 and 2×10^6 cells/mL optical density at 410 nm (previously calibrated with YPD agar plate colony counts). Sufficient 10 mM stock solution of the 5-DAPP/LIVE dye in DMSO is added to effect a final concentration of 10 μM of the dye in the medium. The suspension is incubated for 30 min at 37° C. then 15 μL are placed between a coverglass and the microscope slide. The cellular fluorescence is observed using fluorescein (long-pass emission) or rhodamine filter sets.
# [1] = test system: epidermal tissue of the bulb, Alium spp.; test: Staining of plant cell tissue (Example 6); assay type: cell-based; conditions: 10 μM dye, 30 min, room temperature
# Method: A small section of tissue from the bulb is removed with a razor blade. 0.5 mL of a 10 μM solution of the 5-DAPP/LIVE dye in distilled water is dispensed into a small glass dish. The epidermal tissue is cut into sections and placed in the dye solution. The tissue is stained for 30 min at room temperature in the dark then the tissue preparation is mounted in the presence of the dye between a coverglass and the slide.
# [2] = test system: free-living ciliate and flagellate protozoans; test: Staining of protozoa (Example 7); assay type: cell-based; conditions: 1 μL of 10 mM dye in 1 mL culture, 10 min, ambient temperature
# Method: 1 μL of 10 mM the 5-DAPP/LIVE dye stock is added to 1 mL of protozoan culture. The medium is incubated for 10 min at ambient temperature. 15 μL of this preparation is mounted with dye between a coverglass and the slide. Using this procedure, the nuclei of most cells of the free-living ciliate and flagellate protozoans are stained under these conditions.
# sea urchin sperm = test: Staining of sea urchin sperm (Example 8); assay type: cell-based; conditions: 2 μM dye, 5 min, room temperature
# Method: Sperm cells are released from sea urchins by injection of KCl and the cells are concentrated by low speed centrifugation and suspended in 1 mL artificial seawater (ASW) at room temperature. Sufficient 10 mM dye stock solution is added to the sperm suspension to obtain a final dye concentration of 2 μM. The sperm are labeled by incubation in the dye solution for 5 min at room temperature. The sperm are washed by centrifugation at 2000 rpm for 1 min and then resuspended in 1 mL ASW before mounting and observation.
# [3] = test system: 3T3 mouse fibroblast cells; test: Staining of nuclei in adherent cultured mammalian cells (Example 9); assay type: cell-based; conditions: 2 μM dye
# Method: 3T3 mouse fibroblast cells are grown on coverslips in calf serum-supplemented DMEM medium. The coverslips of cells are washed in HBSS+. 5-DAPP/LIVE dye solutions are prepared to a final concentration of 2 μM in DMEM without serum. One group of 3T3 cells is treated with 300 μM chloroquine (group 1). These cells and control cells (group 2) not treated with chloroquine are incubated at 37° C. for 30 min. The two groups of cells are transferred to DMEM plus 5-DAPP/LIVE. The cells are incubated in the dye-containing medium for 30 min at room temperature and are subsequently washed in HBSS+and viewed by epifluorescence microscopy using a long-pass fluorescein or a rhodamine filter set.
# [4] = test system: 3T3 mouse fibroblast cells; test: Pulse-chase staining of lysosomal compartments in cultured mammalian cells (Example 10); assay type: cell-based
# Method: 3T3 mouse fibroblast cells are grown on coverslips in calf serum-supplemented DMEM medium. The coverslips of cells are washed using the HBSS+, then hexidium solutions are prepared to final concentrations of 2 μM and 0.2 μM in HBSS+. The cells are incubated in the dye-containing medium for 2 min at room temperature then they are washed in HBSS +and viewed by epifluorescence microscopy using a long-pass fluorescein or a rhodamine filter set.
# [5] = test system: rainbow trout gonad cells (RTG-2); test: Staining followed by fixation (Example 13); assay type: cell-based; conditions: 1 μM, 30 min, room temperature
# Method: Adherent rainbow trout gonad cells (RTG-2) are grown at 20° C. until about 25% confluent. The cells are labeled by incubation in HBSS- containing 1 μM hexidium at room temperature for 30 min. The cells are subsequently washed free of hexidium with HBSS-, followed by phosphate-buffered saline, pH 7.4 (PBS), and fixed in 2% formaldehyde in PBS for 15 min at room temperature. Cell nuclei and cytoplasmic fluorescence are observed in the fluorescence microscope using fluorescein long-pass or rhodamine filter sets.
# living cells = test: Entry into / staining of living cells, general; assay type: cell-based; conditions: general summary
# gram-positive bacteria = conditions: mild conditions; application Ser. No. 08/047,683; cited from earlier work
# gram-negative bacteria = conditions: mild conditions; application Ser. No. 08/047,683; cited from earlier work
smiles,measurement,setting,value
CCCCCC[n+]1c(-c2ccccc2)c2cc(N)ccc2c2ccc(N)cc21 [hexidium],extent of loading,Bacillus cereus,optimal
same,rate of dye loading,"Bacillus cereus; 488 nm excitation, 600 nm emission",increases with carbon chain length
same,staining of spores (in words),mushroom spores,stains all spores brightly; also recorded: stained most effectively
same,staining distribution and intensity,Saccharomyces,less of a hazy cytoplasmic stain and more distinct nuclei
same,cell wall / surface staining,[1],more hazy surface staining occurs with ethidium and butidium than with hexidium or octidium
same,staining of nuclei of protozoans,[2],slightly better than octidium
same,effect on motility of the sperm or ability to fertilize a sea urchin egg,sea urchin sperm,no apparent effect
same,staining of sperm nuclei,sea urchin sperm,sperm nuclei stain brightly
same,"staining distribution, chloroquine-treated cells","[3]; group 1, 300 μM chloroquine","stained throughout, but with a greater relative intensity of staining in the nucleus"
same,"staining distribution, control cells","[3]; group 2, no chloroquine",relatively equal staining in the nucleus and cytoplasm
same,color of nucleus and cytoplasm,"[3]; one half hour, long-pass fluorescein filter (red with rhodamine excitation)",orange
same,labeling after brief pulse-chase loading,"[4]; 0.2 μM, 2 min, room temperature",labeling of punctate structures in the cell cytoplasm; also recorded: green
same,labeling after brief loading,"[4]; 2 μM, 2 min, room temperature","additional organellar staining, which is apparently mitochondrial"
same,effect of chloroquine preincubation on staining,[4]; 300 μM chloroquine,reduces the amount of cytoplasmic staining
same,staining of nuclei,[4]; under both conditions (0.2 and 2 μM),"stained slightly, but only in the nucleolar regions"
same,difference between live loaded cells and cells fixed with 2% formaldehyde,[5],essentially no difference
same,membrane permeability,living cells,marked enhancement of membrane permeability in all systems
same,entry into / staining of live cells,living cells; several types of cells,enters many types of live cells quickly and is bright
same,staining of live gram-positive bacteria,gram-positive bacteria,significantly greater
same,staining of live gram-negative bacteria,gram-negative bacteria,lightly stain some gram negative organisms
